The record followed here is patent EP4660185A1, “NAV1.7- AND/OR NAV1.8-INHIBITING AMIDES, PROCESSES FOR THE PREPARATION THEREOF, COMPOSITIONS, USES, METHODS FOR TREATMENT USING SAME, AND KITS” (Eurofarma Laboratórios S.A., priority 2023, dated 2024).

Experiment [1] concerns the target T1, human sodium channels Nav 1.8 (Homo sapiens, UniProt Q9Y5Y9).
T1 construct: expressed in transfected cells
The experiment can be described thus: Automated whole-cell voltage-clamp (ScreenPatch 384P) sodium current block, Nav 1.8. Type of experiment: cell-based. The following applies: CHO cells stably expressing human Nav 1.8; holding -100 mV, inactivation step -40 mV for 8 seconds, test step 10 mV (TP1A); exposure at least five minutes, room temperature; mean where tested in two or more assays; read-out: Nav1.8 IC50. Here is the method: (§1) Biological assays were performed on Chinese hamster ovary (CHO) cells that express human sodium channels Nav 1.8 or Nav 1.7 in a stable manner.
(§2) The experimental protocol voltage-clamp using the whole cell configuration was established on the automated ScreenPatch® 384P platform (SP384PE, Nanion Technologies, Livingston, NJ) and the results were recorded with a Nanion 384-well Patch Clamp chip (NPC) (Nanion Technologies, Livingston, NJ).
(§3) Compounds of Formula Ia and Formula Ib were diluted in eight concentrations in the extracellular solution composed of saline solution, buffered with HEPES (mM): NaCl, 137; KCl, 4; CaCl2, 3,8; MgCl2, 1; HEPES, 10; Glucose, 10; pH 7.4. The […], 50; CsF, 90; MgCl2, 5; EGTA, 5; HEPES, 10; pH 7.2. The duration of exposure of each compound with cells expressing Nav 1.7 or Nav 1.8 was at least five minutes, and the assays were performed at room temperature.
(§4) The measurements of the sodium currents of Nav 1.8 and Nav 1.7 were obtained using the voltage protocol described below: A holding voltage of -100 mV was established followed by an inactivation voltage step at -40 mV for 8 seconds, followed by a step of -100 mV for 20 ms, followed by a 20 ms step for 10 mV for Nav 1.8 or 0 mV for Nav 1.7 (TP1A) before returning to the holding voltage of -100 mV.
(§5) The protocol was repeated at a frequency of 0.05 Hz and the amplitude of the current was quantified throughout the recording of the TP1A phase. The variation in the amplitude of the peak current was evaluated according to the formula described below, after exposing the cells expressing the channels to each concentration of the different compounds: % Block = (1−(ITP1A,molecule/ITP1A,basal)×100%, [formula] wherein ITP1A,basal and ITP1A,molecule represent the peaks of sodium current input into TP1A before exposure to the compound and in the presence of the compound, respectively.
(§6) Data were obtained by nonlinear regression (nonlinear least squares) with XLfit for Excel (Microsoft, Redmond, WA).
(§7) The compounds were tested in at least one assay to obtain the value of CI50. For compounds that were tested in two or more assays, the results are described as the mean of the CI50 values.

In experiment [2] the target is T2, human sodium channels Nav 1.7 (Homo sapiens, UniProt Q15858).
T2 construct: expressed in transfected cells
T2 sequence (Q15858 whole entry): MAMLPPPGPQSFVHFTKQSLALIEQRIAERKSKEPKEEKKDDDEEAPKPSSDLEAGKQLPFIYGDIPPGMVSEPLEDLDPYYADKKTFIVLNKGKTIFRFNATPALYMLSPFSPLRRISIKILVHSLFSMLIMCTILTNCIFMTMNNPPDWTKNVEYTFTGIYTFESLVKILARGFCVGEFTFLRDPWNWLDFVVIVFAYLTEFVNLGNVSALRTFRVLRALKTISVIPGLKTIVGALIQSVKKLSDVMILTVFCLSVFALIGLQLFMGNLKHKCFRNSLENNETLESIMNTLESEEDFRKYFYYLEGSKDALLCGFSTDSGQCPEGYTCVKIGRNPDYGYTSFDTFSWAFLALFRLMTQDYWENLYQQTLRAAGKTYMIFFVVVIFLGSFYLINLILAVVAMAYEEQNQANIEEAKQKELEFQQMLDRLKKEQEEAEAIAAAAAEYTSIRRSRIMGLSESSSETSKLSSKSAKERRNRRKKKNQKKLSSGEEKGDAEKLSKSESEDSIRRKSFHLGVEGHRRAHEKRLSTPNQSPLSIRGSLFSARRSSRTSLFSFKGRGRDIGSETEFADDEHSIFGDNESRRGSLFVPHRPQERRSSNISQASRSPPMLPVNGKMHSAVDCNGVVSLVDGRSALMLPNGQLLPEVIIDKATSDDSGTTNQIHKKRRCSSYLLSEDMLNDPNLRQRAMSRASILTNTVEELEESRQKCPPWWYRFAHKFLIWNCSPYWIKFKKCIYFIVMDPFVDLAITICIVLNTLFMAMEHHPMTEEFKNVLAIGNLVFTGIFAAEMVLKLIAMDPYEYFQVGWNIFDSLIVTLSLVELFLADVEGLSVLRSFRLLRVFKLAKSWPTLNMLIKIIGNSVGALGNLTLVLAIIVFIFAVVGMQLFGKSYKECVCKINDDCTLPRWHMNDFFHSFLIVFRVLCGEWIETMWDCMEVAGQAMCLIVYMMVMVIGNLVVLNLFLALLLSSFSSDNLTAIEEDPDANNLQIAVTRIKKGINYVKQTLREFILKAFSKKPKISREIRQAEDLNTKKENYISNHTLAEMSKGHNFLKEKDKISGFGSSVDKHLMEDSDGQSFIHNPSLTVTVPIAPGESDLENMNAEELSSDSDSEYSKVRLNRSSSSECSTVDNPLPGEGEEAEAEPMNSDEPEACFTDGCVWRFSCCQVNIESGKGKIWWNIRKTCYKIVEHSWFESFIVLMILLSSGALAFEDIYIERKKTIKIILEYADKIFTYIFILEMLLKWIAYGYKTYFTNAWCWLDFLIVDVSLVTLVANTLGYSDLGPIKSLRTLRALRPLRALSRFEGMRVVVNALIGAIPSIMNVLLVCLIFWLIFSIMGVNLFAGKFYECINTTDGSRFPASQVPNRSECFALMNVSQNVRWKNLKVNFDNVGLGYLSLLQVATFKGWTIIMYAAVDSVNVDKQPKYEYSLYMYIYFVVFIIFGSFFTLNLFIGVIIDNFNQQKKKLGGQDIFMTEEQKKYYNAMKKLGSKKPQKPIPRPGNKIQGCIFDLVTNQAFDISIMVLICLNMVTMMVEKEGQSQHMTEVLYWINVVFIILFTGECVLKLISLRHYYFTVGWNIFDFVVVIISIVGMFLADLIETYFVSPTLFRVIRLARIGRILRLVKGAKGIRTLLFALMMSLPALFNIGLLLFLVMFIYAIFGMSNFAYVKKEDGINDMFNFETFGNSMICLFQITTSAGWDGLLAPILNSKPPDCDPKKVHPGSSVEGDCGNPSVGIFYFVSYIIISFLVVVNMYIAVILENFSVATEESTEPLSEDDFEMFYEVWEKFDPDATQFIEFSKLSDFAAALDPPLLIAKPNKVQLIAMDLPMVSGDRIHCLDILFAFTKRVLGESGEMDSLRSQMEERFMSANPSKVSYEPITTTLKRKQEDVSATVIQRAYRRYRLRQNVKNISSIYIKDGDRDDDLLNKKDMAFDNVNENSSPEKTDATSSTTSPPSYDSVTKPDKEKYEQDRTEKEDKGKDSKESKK
The experiment can be described thus: Automated whole-cell voltage-clamp (ScreenPatch 384P) sodium current block, Nav 1.7. Type of experiment: cell-based. The following applies: CHO cells stably expressing human Nav 1.7; holding -100 mV, inactivation step -40 mV for 8 seconds, test step 0 mV (TP1A); exposure at least five minutes, room temperature; mean where tested in two or more assays; read-out: Nav1.7 IC50. Here is the method: as §1, §2, §3, §4, §5, §6, §7

T1 sequence (Q9Y5Y9 whole entry): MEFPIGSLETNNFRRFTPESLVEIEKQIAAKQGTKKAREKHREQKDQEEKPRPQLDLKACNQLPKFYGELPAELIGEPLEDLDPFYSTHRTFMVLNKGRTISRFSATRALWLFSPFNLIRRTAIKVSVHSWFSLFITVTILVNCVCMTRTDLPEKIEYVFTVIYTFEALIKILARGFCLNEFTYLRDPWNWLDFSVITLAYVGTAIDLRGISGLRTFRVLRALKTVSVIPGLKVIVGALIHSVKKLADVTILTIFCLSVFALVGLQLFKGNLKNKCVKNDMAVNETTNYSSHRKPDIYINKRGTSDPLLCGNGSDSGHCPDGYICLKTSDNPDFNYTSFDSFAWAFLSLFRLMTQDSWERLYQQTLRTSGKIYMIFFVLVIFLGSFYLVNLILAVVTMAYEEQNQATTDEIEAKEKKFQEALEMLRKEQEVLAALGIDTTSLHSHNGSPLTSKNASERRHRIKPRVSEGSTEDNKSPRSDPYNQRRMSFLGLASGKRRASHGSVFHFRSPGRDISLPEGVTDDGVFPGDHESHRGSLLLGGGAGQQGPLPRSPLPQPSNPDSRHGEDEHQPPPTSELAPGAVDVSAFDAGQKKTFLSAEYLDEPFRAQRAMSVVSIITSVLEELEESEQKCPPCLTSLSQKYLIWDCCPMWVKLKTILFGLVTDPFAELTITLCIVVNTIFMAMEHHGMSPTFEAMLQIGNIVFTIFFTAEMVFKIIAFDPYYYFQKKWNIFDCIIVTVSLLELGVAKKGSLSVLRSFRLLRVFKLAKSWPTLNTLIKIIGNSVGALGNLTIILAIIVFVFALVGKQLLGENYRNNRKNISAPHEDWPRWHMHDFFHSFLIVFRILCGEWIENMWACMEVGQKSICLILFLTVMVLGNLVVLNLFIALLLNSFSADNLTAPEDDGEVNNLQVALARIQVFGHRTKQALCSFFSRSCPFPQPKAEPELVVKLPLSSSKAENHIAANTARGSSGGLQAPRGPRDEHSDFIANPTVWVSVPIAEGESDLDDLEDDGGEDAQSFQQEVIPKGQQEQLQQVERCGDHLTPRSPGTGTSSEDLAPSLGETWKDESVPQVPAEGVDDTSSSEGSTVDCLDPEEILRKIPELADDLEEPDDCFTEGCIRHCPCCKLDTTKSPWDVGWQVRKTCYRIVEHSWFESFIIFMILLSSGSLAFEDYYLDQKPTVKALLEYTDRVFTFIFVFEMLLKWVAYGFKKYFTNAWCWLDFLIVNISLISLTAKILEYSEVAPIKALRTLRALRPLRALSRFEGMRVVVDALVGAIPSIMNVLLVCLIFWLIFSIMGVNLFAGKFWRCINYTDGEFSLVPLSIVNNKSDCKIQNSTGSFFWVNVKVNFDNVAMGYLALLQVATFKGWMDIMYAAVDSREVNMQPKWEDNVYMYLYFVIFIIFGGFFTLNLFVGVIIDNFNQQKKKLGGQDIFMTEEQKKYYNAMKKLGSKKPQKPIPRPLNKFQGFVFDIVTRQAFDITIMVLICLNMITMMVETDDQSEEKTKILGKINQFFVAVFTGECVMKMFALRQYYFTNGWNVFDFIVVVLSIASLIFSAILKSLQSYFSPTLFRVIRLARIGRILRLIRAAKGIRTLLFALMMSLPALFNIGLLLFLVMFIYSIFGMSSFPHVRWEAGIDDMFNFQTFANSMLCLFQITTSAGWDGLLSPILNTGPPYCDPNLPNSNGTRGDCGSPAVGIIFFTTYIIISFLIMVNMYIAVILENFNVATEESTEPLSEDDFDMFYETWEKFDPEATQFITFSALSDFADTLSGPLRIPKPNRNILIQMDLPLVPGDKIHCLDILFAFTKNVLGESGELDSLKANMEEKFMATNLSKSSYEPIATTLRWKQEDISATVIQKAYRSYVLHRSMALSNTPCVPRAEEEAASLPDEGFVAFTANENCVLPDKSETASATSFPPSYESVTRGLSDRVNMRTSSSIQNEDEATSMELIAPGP

On to `COc1cc(CCNC(=O)c2cncc(-c3ccc(OC(C)C)cc3)n2)cc(OC)c1` [compound 1], for which the IC50 is 0.5 to 1 µM in experiment [1] and above 1 µM in experiment [2]. The like results for `COc1cc(CCNC(=O)c2cncc(-c3ccc(OC(F)F)cc3)n2)cc(OC)c1` [compound 2] were, in that order, below 0.5 µM and 0.5 to 1 µM. In the case of `CCOc1ccc(-c2cncc(C(=O)NCCc3cc(OC)cc(OC)c3)n2)c(F)c1` [compound 3], the IC50 in experiment [1] is below 0.5 µM; in experiment [2] it was above 1 µM.

As for `CCOc1ccc(-c2cncc(C(=O)NCCc3cc(OC)cc(OC)c3)n2)c(C)c1` [compound 4], the IC50 in experiment [1] and in experiment [2] was below 0.5 µM throughout. Consider `CCOc1ccc(-c2cncc(C(=O)NCCc3cccc(OC)c3)n2)cc1` [compound 5], for which the IC50 in experiment [1] and in experiment [2] was below 0.5 µM throughout.

On to `CCOc1ccc(-c2cncc(C(=O)NCCc3ccccc3F)n2)cc1` [compound 6], for which the half-inhibitory concentration (IC50) in experiment [1] and in experiment [2] was below 0.5 µM throughout. Regarding `CCOc1ccc(-c2cncc(C(=O)NCCc3cc(OC)cc(OC)c3)n2)cc1` [compound 10], the IC50 was below 0.5 µM in experiment [1] and 0.5 to 1 µM in experiment [2]. For the molecule `CCOc1ccc(-c2cncc(C(=O)NCCc3cc(OC)cc(C(C)O)c3)n2)cc1` (centres unmarked) [compound 12], the IC50 is below 0.5 µM in experiment [1] and above 1 µM in experiment [2]. `CCOc1ccc(-c2cncc(C(=O)NCCc3cccc(C(C)O)c3)n2)cc1` (centres unmarked) [compound 13]: the IC50 was below 0.5 µM in experiment [1] and above 1 µM in experiment [2].

With `CCOc1ccc(-c2cncc(C(=O)NCCc3cc(C(C)O)cnc3F)n2)cc1` (centres unmarked) [compound 14], the IC50 in experiment [1] and in experiment [2] was above 1 µM in each case. In the case of `CCOc1ccc(-c2cncc(C(=O)NCCc3cc(C(C)O)ccc3F)n2)cc1` (centres unmarked) [compound 15], the IC50 was below 0.5 µM in experiment [1] and above 1 µM in experiment [2].

For `CCOc1ccc(-c2cncc(C(=O)NCCc3cc(OC)cnc3F)n2)cc1` [compound 16], the results for the IC50 in experiment [1] and in experiment [2] were below 0.5 µM and above 1 µM, respectively. With `CCOc1ccc(-c2cncc(C(=O)NCCc3cc(OC)ccc3F)n2)cc1` [compound 17], the IC50 in experiment [1] is below 0.5 µM; in experiment [2] it was 0.5 to 1 µM. Consider `CCOc1ccc(-c2cncc(C(=O)NCCc3cc(OC)cnc3C)n2)cc1` [compound 18], for which the figures for the IC50 in experiment [1] and in experiment [2] were below 0.5 µM and above 1 µM, respectively. For `CCOc1ccc(-c2cncc(C(=O)NC[C@H](C)c3cc(OC)cc(OC)c3)n2)cc1` [compound 22] the same measures were below 0.5 µM and above 1 µM. Regarding `CCOc1ccc(-c2cncc(C(=O)NC[C@H](O)c3cc(OC)cc(OC)c3)n2)cc1` [compound 24], the IC50 in experiment [1] and in experiment [2] was above 1 µM throughout. Consider `CCOc1ccc(-c2cncc(C(=O)NC[C@@H](O)c3cc(OC)cc(OC)c3)n2)cc1` [compound 25], for which the IC50 in experiment [1] and in experiment [2] was above 1 µM each time.

`CCOc1ccc(-c2cncc(C(=O)NC[C@H](N)c3cc(OC)cc(OC)c3)n2)cc1` [compound 26]: the IC50 in experiment [1] and in experiment [2] was above 1 µM throughout. Consider `CCOc1ccc(-c2cncc(C(=O)NC[C@@H](N)c3cc(OC)cc(OC)c3)n2)cc1` [compound 27], for which the IC50 in experiment [1] and in experiment [2] was below 0.5 µM in each case. On to `COc1cc(CCNC(=O)c2cncc(-c3ccc(OC(C)C)nc3)n2)cc(OC)c1` [compound 28], for which the IC50 is below 0.5 µM in experiment [1] and 0.5 to 1 µM in experiment [2]. For the molecule `COc1cc(CCNC(=O)c2cncc(-c3ccc(OC(F)F)nc3)n2)cc(OC)c1` [compound 29], the IC50 in experiment [1] is below 0.5 µM; in experiment [2] it was 0.5 to 1 µM. For `CCOc1cc(C)c(-c2cncc(C(=O)NCCc3cc(OC)cc(OC)c3)n2)cn1` [compound 30], the IC50 in experiment [1] and in experiment [2] was above 1 µM in each case. Turning to `CCOc1ccc(-c2cncc(C(=O)NCCc3cc(OC)cc(OC)c3)n2)c(C)n1` [compound 31], the IC50 in experiment [1] and in experiment [2] was above 1 µM each time.

In the case of `CCOc1ccc(-c2cncc(C(=O)NCCc3cc(OC)cnc3F)n2)cn1` [compound 34], the half-maximal inhibitory concentration (IC50) is below 0.5 µM in experiment [1] and 0.5 to 1 µM in experiment [2]. As to `CCOc1ccc(-c2cncc(C(=O)NCCc3cc(OC)cc(C(C)O)c3)n2)cn1` (centres unmarked) [compound 40], the IC50 in experiment [1] and in experiment [2] was above 1 µM in each case. With `CCOc1ccc(-c2cncc(C(=O)NCCc3cccc(C(C)O)c3)n2)cn1` (centres unmarked) [compound 41], the IC50 in experiment [1] and in experiment [2] was above 1 µM throughout. On to `CCOc1ccc(-c2cncc(C(=O)NCCc3cc(C(C)O)ccc3F)n2)cn1` (centres unmarked) [compound 43], for which the IC50 is below 0.5 µM in experiment [1] and 0.5 to 1 µM in experiment [2]. For the molecule `CCOc1ccc(-c2cncc(C(=O)NCCc3cc(OC)cc(OC)c3)n2)cn1` [compound 44], the IC50 in experiment [1] and in experiment [2] was above 1 µM each time. `CCOc1ccc(-c2cncc(C(=O)NCCc3cccc(OC)c3)n2)cn1` [compound 45]: the figures for the IC50 in experiment [1] and in experiment [2] were below 0.5 µM and 0.5 to 1 µM, respectively. As to `O=C(NCCc1ccccc1F)c1cncc(-c2ccc(OC(F)F)nc2)n1` [compound 47], the IC50 in experiment [1] and in experiment [2] was above 1 µM in each case. As to `COc1ccc(-c2cncc(C(=O)NCCc3ccccc3F)n2)cn1` [compound 48], the IC50 in experiment [1] and in experiment [2] was above 1 µM throughout.

In the case of `COc1ccc(-c2cncc(C(=O)NCCc3cc(OC)cc(OC)c3)n2)cc1` [compound 49], the IC50 in experiment [1] and in experiment [2] was above 1 µM each time. For the molecule `COc1cnc(F)c(CCNC(=O)c2cncc(-c3ccc(OC(F)F)cc3)n2)c1` [compound 50], the IC50 in experiment [1] and in experiment [2] was above 1 µM in each case. As for `COc1cnc(F)c(CCNC(=O)c2cncc(-c3ccc(OC(F)F)nc3)n2)c1` [compound 51], the IC50 in experiment [1] and in experiment [2] was above 1 µM each time. Regarding `COc1ccc(-c2cncc(C(=O)NCCc3cc(OC)cnc3F)n2)cc1` [compound 52], the IC50 is below 0.5 µM in experiment [1] and above 1 µM in experiment [2]. Take `COc1cnc(F)c(CCNC(=O)c2cncc(-c3ccc(OC)nc3)n2)c1` [compound 53]: the IC50 in experiment [1] is below 0.5 µM; in experiment [2], 0.5 to 1 µM.

For `COc1cc(OC)cc([C@H](O)CNC(=O)c2cncc(-c3ccc(OC(F)F)cc3)n2)c1` [compound 54], the IC50 in experiment [1] was below 0.5 µM; in experiment [2], above 1 µM.

Take `COc1ccc(-c2cncc(C(=O)NC[C@@H](O)c3cc(OC)cc(OC)c3)n2)cc1` [compound 55]: the IC50 in experiment [1] is below 0.5 µM; in experiment [2] it was above 1 µM.

With `COc1cnc(F)c(CCNC(=O)c2cncc(-c3ccc(C(C)(C)O)cc3)n2)c1` [compound 56], the IC50 in experiment [1] and in experiment [2] was above 1 µM each time. Regarding `COc1cnc(F)c(CCNC(=O)c2cncc(-c3ccc(C(C)(C)O)nc3)n2)c1` [compound 57], the IC50 in experiment [1] and in experiment [2] was above 1 µM in each case. On to `COc1cnc(F)c(CCNC(=O)c2cncc(-c3ccc(C(C)O)nc3)n2)c1` (centres unmarked) [compound 58], for which the IC50 in experiment [1] and in experiment [2] was above 1 µM each time. For `COc1cnc(F)c(CCNC(=O)c2cncc(-c3ccc(C(C)O)cc3)n2)c1` (centres unmarked) [compound 59], the IC50 in experiment [1] and in experiment [2] was above 1 µM throughout. Consider `CCOc1ccc(-c2cncc(C(=O)Nc3cc4c(OC)cccc4[nH]3)n2)cc1` [compound 60], for which the IC50 in experiment [1] is below 0.5 µM; in experiment [2], 0.5 to 1 µM. With `CCOc1ccc(-c2cncc(C(=O)Nc3nc4c(F)ccc(OC)c4s3)n2)cn1` [compound 61], the IC50 in experiment [1] and in experiment [2] was above 1 µM in each case. For `CCOc1ccc(-c2cncc(C(=O)Nc3cn4c(F)ccc(OC)c4n3)n2)cn1` [compound 63], the IC50 in experiment [1] and in experiment [2] was above 1 µM in each case.

In the case of `CCOc1ccc(-c2cncc(C(=O)Nc3nc4c(F)ccc(OC)c4[nH]3)n2)cn1` [compound 64], the IC50 in experiment [1] and in experiment [2] was above 1 µM in each case. With `CCOc1ccc(-c2cncc(C(=O)Nc3nc4c(F)ccc(OC)c4o3)n2)cn1` [compound 65], the IC50 in experiment [1] and in experiment [2] was above 1 µM each time. As to `[2H]C([2H])([2H])Oc1ccc(-c2cncc(C(=O)NC[C@@H](O)c3cc(OC([2H])([2H])[2H])cc(OC([2H])([2H])[2H])c3)n2)cc1` [compound 99], the IC50 in experiment [1] was 0.5 to 1 µM.

What is called IC50 is the concentration that gives 50% inhibition.
